Data: patent publication KR20190126525A, “신규 소듐채널 저해 화합물, 이의 제조방법, 및 이를 포함하는 소듐채널 관련 질환의 예방 또는 치료용 약학적 조성물” (이화여자대학교 산학협력단, priority 2018, dated 2019)

Key:
Nav1.7 = biological target: T1, Nav1.7 (Homo sapiens, UniProt Q15858); experiment: VIPR (voltage/ion probe reader) membrane potential assay, Nav1.7; format: cell-based; details: for inhibition at 10 µM: HEK293, HEK cells expressing hNav1.7, veratridine; for selective inhibitory activity against Nav1.7: Nav1.7 versus Nav1.8, 10uM, from Table 2
T1 construct: host or cells: HEK cells

Nav1.8 = biological target: T2, Nav1.8 (Homo sapiens, UniProt Q9Y5Y9); experiment: VIPR (voltage/ion probe reader) membrane potential assay, Nav1.8; format: cell-based; details: HEK293, HEK cells expressing hNav1.8, veratridine
T2 construct: host or cells: HEK cells
T2 sequence (Q9Y5Y9 whole entry): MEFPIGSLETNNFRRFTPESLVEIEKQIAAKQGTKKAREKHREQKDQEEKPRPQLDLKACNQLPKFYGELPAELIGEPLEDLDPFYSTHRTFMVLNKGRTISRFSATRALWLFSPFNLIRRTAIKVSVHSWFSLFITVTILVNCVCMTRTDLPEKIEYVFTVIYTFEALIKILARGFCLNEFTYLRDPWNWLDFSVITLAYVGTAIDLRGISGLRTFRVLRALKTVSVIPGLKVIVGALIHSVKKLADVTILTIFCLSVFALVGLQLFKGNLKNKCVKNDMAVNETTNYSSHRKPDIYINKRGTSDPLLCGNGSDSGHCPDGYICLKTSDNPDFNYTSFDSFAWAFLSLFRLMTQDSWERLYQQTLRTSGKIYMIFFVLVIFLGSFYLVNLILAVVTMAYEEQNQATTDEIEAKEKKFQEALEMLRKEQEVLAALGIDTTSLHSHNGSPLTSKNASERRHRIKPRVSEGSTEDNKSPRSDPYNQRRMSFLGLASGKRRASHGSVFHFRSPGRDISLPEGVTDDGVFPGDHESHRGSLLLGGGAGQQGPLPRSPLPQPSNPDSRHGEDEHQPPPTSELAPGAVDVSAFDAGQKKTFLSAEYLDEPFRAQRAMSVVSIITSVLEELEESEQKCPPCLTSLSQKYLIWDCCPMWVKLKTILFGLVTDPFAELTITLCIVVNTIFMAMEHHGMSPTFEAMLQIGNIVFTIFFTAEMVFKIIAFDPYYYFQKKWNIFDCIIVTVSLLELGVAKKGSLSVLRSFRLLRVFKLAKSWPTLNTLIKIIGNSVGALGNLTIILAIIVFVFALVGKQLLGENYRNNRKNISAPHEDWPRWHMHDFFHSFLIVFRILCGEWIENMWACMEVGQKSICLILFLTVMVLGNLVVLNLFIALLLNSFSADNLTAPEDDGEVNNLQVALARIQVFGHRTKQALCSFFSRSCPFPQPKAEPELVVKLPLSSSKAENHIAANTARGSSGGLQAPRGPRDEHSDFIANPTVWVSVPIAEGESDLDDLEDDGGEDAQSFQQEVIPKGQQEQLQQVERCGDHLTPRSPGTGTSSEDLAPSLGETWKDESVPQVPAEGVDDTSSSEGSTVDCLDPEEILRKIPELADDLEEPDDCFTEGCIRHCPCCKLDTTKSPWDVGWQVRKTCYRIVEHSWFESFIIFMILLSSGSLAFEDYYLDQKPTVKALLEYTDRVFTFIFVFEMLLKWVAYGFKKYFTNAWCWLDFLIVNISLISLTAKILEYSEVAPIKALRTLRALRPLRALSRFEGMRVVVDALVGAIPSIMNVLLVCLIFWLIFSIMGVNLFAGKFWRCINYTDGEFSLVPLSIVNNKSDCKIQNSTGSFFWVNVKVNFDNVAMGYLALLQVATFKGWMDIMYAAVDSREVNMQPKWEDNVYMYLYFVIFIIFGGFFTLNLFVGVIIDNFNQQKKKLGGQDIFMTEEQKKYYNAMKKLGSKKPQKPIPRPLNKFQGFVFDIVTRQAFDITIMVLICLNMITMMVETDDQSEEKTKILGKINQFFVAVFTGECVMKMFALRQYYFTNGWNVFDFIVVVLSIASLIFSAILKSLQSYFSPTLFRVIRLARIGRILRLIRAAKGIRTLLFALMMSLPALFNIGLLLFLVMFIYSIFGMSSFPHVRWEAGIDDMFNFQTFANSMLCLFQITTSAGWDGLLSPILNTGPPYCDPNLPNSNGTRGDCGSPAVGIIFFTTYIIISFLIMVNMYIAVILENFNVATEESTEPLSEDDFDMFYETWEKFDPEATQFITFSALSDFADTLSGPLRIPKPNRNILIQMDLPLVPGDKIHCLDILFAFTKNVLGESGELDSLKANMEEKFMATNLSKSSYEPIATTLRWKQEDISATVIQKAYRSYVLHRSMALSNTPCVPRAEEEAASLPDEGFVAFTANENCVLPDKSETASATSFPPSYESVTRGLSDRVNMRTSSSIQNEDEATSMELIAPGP

T1 sequence (Q15858 whole entry): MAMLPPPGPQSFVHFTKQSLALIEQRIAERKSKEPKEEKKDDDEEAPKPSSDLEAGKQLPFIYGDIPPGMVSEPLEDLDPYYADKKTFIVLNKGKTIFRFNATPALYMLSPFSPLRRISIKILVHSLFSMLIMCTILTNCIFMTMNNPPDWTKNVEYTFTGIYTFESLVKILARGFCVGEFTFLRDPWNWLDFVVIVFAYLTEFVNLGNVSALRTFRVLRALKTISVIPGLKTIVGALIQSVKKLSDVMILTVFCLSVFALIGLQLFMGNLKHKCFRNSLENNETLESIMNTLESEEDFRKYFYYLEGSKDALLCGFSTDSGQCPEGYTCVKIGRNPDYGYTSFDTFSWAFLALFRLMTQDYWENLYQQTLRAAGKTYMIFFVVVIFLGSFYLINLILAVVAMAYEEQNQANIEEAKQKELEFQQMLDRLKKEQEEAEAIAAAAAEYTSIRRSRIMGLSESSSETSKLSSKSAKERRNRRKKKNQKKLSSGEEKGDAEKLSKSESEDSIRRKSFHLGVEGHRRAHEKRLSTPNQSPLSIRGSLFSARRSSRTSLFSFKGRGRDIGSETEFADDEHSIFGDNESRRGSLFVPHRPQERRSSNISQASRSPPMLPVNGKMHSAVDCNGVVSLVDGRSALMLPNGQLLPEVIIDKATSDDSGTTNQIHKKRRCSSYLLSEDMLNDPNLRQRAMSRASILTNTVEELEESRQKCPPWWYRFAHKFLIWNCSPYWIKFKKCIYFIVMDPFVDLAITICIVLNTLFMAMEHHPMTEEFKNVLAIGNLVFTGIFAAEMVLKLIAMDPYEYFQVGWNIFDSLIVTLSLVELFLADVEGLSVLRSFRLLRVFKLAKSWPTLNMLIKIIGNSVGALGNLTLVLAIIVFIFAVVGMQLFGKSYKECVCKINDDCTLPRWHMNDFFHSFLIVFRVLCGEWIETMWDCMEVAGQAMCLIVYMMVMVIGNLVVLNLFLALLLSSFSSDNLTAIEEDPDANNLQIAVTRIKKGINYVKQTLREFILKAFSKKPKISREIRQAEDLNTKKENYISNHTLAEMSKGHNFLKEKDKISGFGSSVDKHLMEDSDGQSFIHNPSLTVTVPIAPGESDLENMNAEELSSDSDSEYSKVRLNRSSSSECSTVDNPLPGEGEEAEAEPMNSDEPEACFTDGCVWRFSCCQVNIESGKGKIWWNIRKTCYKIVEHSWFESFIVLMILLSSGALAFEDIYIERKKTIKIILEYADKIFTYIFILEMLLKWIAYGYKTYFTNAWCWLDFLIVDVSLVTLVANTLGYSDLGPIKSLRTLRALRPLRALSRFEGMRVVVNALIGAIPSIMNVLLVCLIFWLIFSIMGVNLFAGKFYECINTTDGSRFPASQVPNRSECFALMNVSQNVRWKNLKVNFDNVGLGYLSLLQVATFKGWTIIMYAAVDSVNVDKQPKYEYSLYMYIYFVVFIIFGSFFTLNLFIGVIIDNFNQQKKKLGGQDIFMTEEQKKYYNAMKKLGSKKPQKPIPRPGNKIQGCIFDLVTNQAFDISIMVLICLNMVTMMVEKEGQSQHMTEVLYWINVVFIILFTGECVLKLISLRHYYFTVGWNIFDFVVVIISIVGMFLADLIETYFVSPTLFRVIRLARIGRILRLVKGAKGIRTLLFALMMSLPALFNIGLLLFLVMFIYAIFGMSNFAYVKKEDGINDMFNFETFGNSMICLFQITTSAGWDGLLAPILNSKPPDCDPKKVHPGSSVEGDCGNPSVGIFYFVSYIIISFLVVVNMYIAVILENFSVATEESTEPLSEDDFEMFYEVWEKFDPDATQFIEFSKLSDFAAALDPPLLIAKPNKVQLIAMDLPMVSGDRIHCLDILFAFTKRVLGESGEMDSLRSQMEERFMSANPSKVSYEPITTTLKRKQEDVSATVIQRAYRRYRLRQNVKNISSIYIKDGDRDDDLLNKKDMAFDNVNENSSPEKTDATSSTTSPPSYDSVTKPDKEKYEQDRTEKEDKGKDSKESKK

Row | SMILES | inhibition at 10 µM (Nav1.7) | inhibition at 10 µM (Nav1.8) | selective inhibitory activity against Nav1.7 (Nav1.7)
1 | CC(CCc1ccccc1)NCc1c[nH]c2ccc(Cl)cc12 (stereo not shown) [실시예 21, N-((5-클로로-1H-인돌-3-일)메틸)-4-페닐부탄-2-아민] | 38.5% |  | 
2 | COc1cc(CNCc2ccc(Oc3ccc(Cl)cc3)cc2)cc(OC)c1OC [실시예 32, N-(4-(4-클로로페녹시)벤질)-1-(3,4,5-트리메톡시페닐)메탄아민] | 15.2% |  | 
3 | COc1cc(CNCc2c(-c3ccccc3)[nH]c3ccccc23)cc(OC)c1OC [실시예 30, 1-(2-페닐-1H-인돌-3-일)-N-(3,4,5-트리메톡시페닐)메탄아민] | 12.1% | 3.3% | 
4 | CC(CCc1ccccc1)NCc1ccc(-c2cccc(C(F)(F)F)c2)o1 (stereo not shown) [실시예 12, 4-페닐-N-((5-(3-(트리플루오로메틸)페닐)퓨란-2-일)메틸)부탄-2-아민] | 104% | 54.4% | 선택적인 저해 활성
5 | COc1cc(CNC(=O)c2ccc3ccccc3n2)cc(OC)c1OC [실시예 41, N-(3,4,5-트리메톡시벤질)퀴놀린-2-카복스아미드] | 71.7% | 19.3% | 선택적인 저해 활성
6 | COc1cc(CNCc2c[nH]c3cc(F)ccc23)cc(OC)c1OC [실시예 35, 1-(6-플루오로-1H-인돌-3-일)-N-(3,4,5-트리메톡시벤질)메탄아민] | 38.2% |  | 
7 | COc1cc(CNCc2ccc(Oc3ccc(F)cc3)cc2)cc(OC)c1OC [실시예 31, N-(4-(4-플루오로페녹시)벤질)-1-(3,4,5-트리메톡시페닐)메탄아민] | 16.6% |  | 
8 | COc1cc(CNCc2c[nH]c3ccc(OCc4ccccc4)cc23)cc(OC)c1OC [실시예 33, 1-(5-(벤질옥시)-1H-인돌-3-일)-N-(3,4,5-트리메톡시벤질)메탄아민] | 34.9% | 5.87% | 
9 | CC(CCc1ccccc1)NC(=O)c1ccc(-c2ccccc2)cc1 (stereo not shown) [실시예 25, N-(4-페닐부탄-2-일)-[1,1'-바이페닐]-4-카복스아미드] | 84% | 31.2% | 선택적인 저해 활성
10 | NC(=O)[C@@H](NCc1ccc(Oc2ccc(Cl)cc2)cc1)c1ccccc1 [실시예 11, (S)-2-(4-(4-클로로페녹시)벤질아미노)-2-페닐아세트아미드] | 3.68% | 19.5% | 
11 | C[C@H](NCc1c[nH]c2ccc(OCc3ccccc3)cc12)C(N)=O [실시예 1, (S)-2-((5-(벤질옥시)-1H-인돌-3-일)메틸아미노)프로판아미드] | 5.13% | 19.7% | 
12 | NC(=O)[C@@H](NCc1cc(-c2ccc(Cl)cc2)on1)c1ccccc1 [실시예 9, (S)-2-((5-(4-클로로페닐)이속사졸-3-일)메틸아미노)-2-페닐아세트아미드] |  | 1.77% | 
13 | COc1cc(CNC(=O)c2ccc(-c3ccccc3)cc2)cc(OC)c1OC [실시예 38, N-(3,4,5-트리메톡시벤질)-[1,1'-바이페닐]-4-카복스아미드] | 6.9% | 18.3% | 
14 | NC(=O)[C@@H](NCc1ccc(Oc2ccc(F)cc2)cc1)c1ccccc1 [실시예 10, (S)-2-(4-(4-플루오로페녹시)벤질아미노)-2-페닐아세트아미드] | 31.3% | 11.3% | 
15 | C[C@H](NCc1c[nH]c2ccc(Br)cc12)C(N)=O [실시예 2, (S)-2-((5-브로모-1H-인돌-3-일)메틸아미노)프로판아미드] | 59.9% | 27.4% | 선택적인 저해 활성
16 | COc1cc(CNCc2c[nH]c3c([N+](=O)[O-])cccc23)cc(OC)c1OC [실시예 37, 1-(7-니트로-1H-인돌-3-일)-N-(3,4,5-트리메톡시벤질)메탄아민] | 4.08% | 8.81% | 
17 | NC(=O)[C@@H](NCc1c[nH]c2ccc(Cl)cc12)c1ccccc1 [실시예 7, (S)-2-((5-클로로-1H-인돌-3-일)메틸아미노)-2-페닐아세트아미드] |  | 3.45% | 

Row | SMILES | inhibition at 10 µM (Nav1.7) | inhibition at 10 µM (Nav1.8) | selective inhibitory activity against Nav1.7 (Nav1.7)
18 | COc1cc(CNCc2c[nH]c3ccc(Br)cc23)cc(OC)c1OC [실시예 34, 1-(5-브로모-1H-인돌-3-일)-N-(3,4,5-트리메톡시벤질)메탄아민] | 27% | 13.9% | 
19 | COc1ccc2[nH]cc(CN[C@@H](C)C(N)=O)c2c1 [실시예 5, (S)-2-((5-메톡시-1H-인돌-3-일)메틸아미노)프로판아미드] | 4.3% | 18.3% | 
20 | CC(CCc1ccccc1)NCc1ccc(Oc2ccc(Cl)cc2)cc1 (stereo not shown) [실시예 24, N-(4-(4-클로로페녹시)벤질)-4-페닐부탄-2-아민] | 10.2% |  | 
21 | COc1ccc(-c2ccc(CNC(C)CCc3ccccc3)o2)cc1Cl (stereo not shown) [실시예 18, N-((5-(3-클로로-4-메톡시페닐)퓨란-2-일)메틸)-4-페닐부탄-2-아민] | 65.9% | 6.75% | 선택적인 저해 활성
22 | CC(CCc1ccccc1)NC(=O)c1cccc2ccccc12 (stereo not shown) [실시예 27, N-(4-페닐부탄-2-일)-1-나프타미드] | 4.12% | 59.2% | 
23 | COc1cc(CNCc2c[nH]c3ccccc23)cc(OC)c1OC [실시예 29, N-((1H-인돌-3-일)메틸)-1-(3,4,5-트리메톡시페닐)메탄아민] | 16.4% |  | 
24 | C[C@H](NCc1c[nH]c2ccc(Cl)cc12)C(N)=O [실시예 3, (S)-2-((5-클로로-1H-인돌-3-일)메틸아미노)프로판아미드] | 2.46% | 20.7% | 
25 | CC(CCc1ccccc1)NCc1ccc(-c2cncnc2)cc1 (stereo not shown) [실시예 19, 4-페닐-N-(4-(피리미딘-5-일)벤질)부탄-2-아민] | 29.8% |  | 
26 | CC(CCc1ccccc1)NCc1ccc(Oc2ccc(F)cc2)cc1 (stereo not shown) [실시예 23, N-(4-(4-플루오로페녹시)벤질)-4-페닐부탄-2-아민] | 33.9% |  | 
27 | CC(CCc1ccccc1)NCc1ccc(N2CCN(C)CC2)cc1 (stereo not shown) [실시예 13, N-(4-(4-메틸피페라진-1-일)벤질)-4-페닐부탄-2-아민] | 66.4% | 4.97% | 선택적인 저해 활성
28 | CC(CCc1ccccc1)NCc1c[nH]c2ccccc12 (stereo not shown) [실시예 22, N-((1H-인돌-3-일)메틸)-4-페닐부탄-2-아민] | 14.2% |  | 
29 | Cc1onc(-c2ccc(Cl)cc2)c1C(=O)NC(C)CCc1ccccc1 (stereo not shown) [실시예 28, 3-(4-클로로페닐)-5-메틸-N-(4-페닐부탄-2-일)이속사졸-4-카복스아미드] | 24.4% |  | 
30 | CC(CCc1ccccc1)NCc1ccc(N2CCOCC2)cc1 (stereo not shown) [실시예 14, N-(4-모폴리노벤질)-4-페닐부탄-2-아민] | 87.1% | 10.2% | 선택적인 저해 활성
31 | CC(CCc1ccccc1)NCc1ccc(-c2ccc(Cl)cc2)o1 (stereo not shown) [실시예 15, N-((5-(4-클로로페닐)퓨란-2-일)메틸)-4-페닐부탄-2-아민] | 34.6% | 42.2% | 
32 | CC(CCc1ccccc1)NCc1ccc(Oc2ccc(C#N)cc2)cc1 (stereo not shown) [실시예 20, 4-(4-((4-페닐부탄-2-일)아미노메틸)페녹시)벤조나이트릴] | 106% | 42.2% | 선택적인 저해 활성
33 | COc1ccc2[nH]cc(CNCc3cc(OC)c(OC)c(OC)c3)c2c1 [실시예 36, 1-(5-메톡시-1H-인돌-3-일)-N-(3,4,5-트리메톡시벤질)메탄아민] | 23.7% |  | 
